Measurements from patent US8450319B2, “Pyrrolopyridazinone compound” (Ube Industries, Ltd., priority 2006, dated 2013).
Structures can show the parent of a compound that is named as a salt.

SMILES | melting point
COc1ccc(-c2cc3c(=O)[nH]ncc3[nH]2)cc1OC1CCCC1 [Example 46, 2-(3-Cyclopentoxy-4-methoxyphenyl)-1,5-dihydropyrrolo[2,3-d]pyridazin-4-one] | 290 °C (dec.)
Cc1c(-c2ccc(OC(F)F)c(OC3CC3)c2)[nH]c2cn[nH]c(=O)c12 [Example 4, 2-(3-Cyclopropoxy-4-difluoromethoxyphenyl)-3-methyl-1,5-dihydropyrrolo[2,3-d]pyridazin-4-one] | 245 to 246 °C
O=c1[nH]ncc2[nH]c(-c3ccc(OC(F)F)c(OC4CC4)c3)c(CCC3CC3)c12 [Example 70, 2-(3-cyclopropoxy-4-difluoromethoxyphenyl)-3-(2-cyclopropylethyl)-1,5-dihydropyrrolo[2,3-d]pyridazin-4-one] | 194 to 197 °C
CC(C)Oc1cc(-c2cc3c(=O)[nH]ncc3[nH]2)ccc1OC(F)F [Example 39, 2-(4-Difluoromethoxy-3-isopropoxyphenyl)-1,5-dihydropyrrolo[2,3-d]pyridazin-4-one] | 269 to 273 °C
COCc1c(-c2ccc(OC(F)F)c(OC3CC3)c2)[nH]c2cn[nH]c(=O)c12 [Example 11, 2-(3-Cyclopropoxy-4-difluoromethoxyphenyl)-3-methoxymethyl-1,5-dihydropyrrolo[2,3-d]pyridazin-4-one] | 104 to 107 °C
COc1ccc(-c2[nH]c3cn[nH]c(=O)c3c2Cl)cc1OC(C)C [Example 48, 3-Chloro-2-(3-isopropoxy-4-methoxyphenyl)-1,5-dihydropyrrolo[2,3-d]pyridazin-4-one] | 291 to 299 °C
O=c1[nH]ncc2[nH]c(-c3ccc(OC(F)F)c(OC4CC4)c3)c(Cc3ccc(F)cc3)c12 [Example 24, 2-(3-Cyclopropoxy-4-difluoromethoxyphenyl)-3-(4-fluorobenzyl)-1,5-dihydropyrrolo[2,3-d]pyridazin-4-one] | 193 to 195 °C
CC(C)Oc1cc(-c2[nH]c3cn[nH]c(=O)c3c2Cl)ccc1OC(F)F [Example 40, 3-Chloro-2-(4-difluoromethoxy-3-isopropoxyphenyl)-1,5-dihydropyrrolo[2,3-d]pyridazin-4-one] | 248 to 262 °C
CC(C)(C)OCc1c(-c2ccc(OC(F)F)c(OC3CC3)c2)[nH]c2cn[nH]c(=O)c12 [Example 64, 3-(tert-Butoxymethyl)-2-(3-cyclopropoxy-4-difluoromethoxyphenyl)-1,5-dihydropyrrolo[2,3-d]pyridazin-4-one] | > 300 °C
O=c1[nH]ncc2[nH]c(-c3ccc(OC(F)F)c(OC4CC4)c3)c(CCc3ccccc3)c12 [Example 21, 2-(3-Cyclopropoxy-4-difluoromethoxyphenyl)-3-phenethyl-1,5-dihydropyrrolo[2,3-d]pyridazin-4-one] | 199 to 201 °C
COc1ccc(-c2[nH]c3cn[nH]c(=O)c3c2Cl)cc1OC1CCC1 [Example 45, 3-Chloro-2-(3-cyclobutoxy-4-methoxyphenyl)-1,5-dihydropyrrolo[2,3-d]pyridazin-4-one] | 285 to 287 °C
Cc1c(-c2ccc(OC(F)F)c3c2C=CC(C)(C)O3)[nH]c2cn[nH]c(=O)c12 (as salt: HCl) [Example 53, 2-(8-Difluoromethoxy-2,2-dimethyl-2H-chromen-5-yl)-3-methyl-1,5-dihydropyrrolo[2,3-d]pyridazin-4-one HCl adduct] | > 300 °C
COc1ccc(-c2[nH]c3cn[nH]c(=O)c3c2Cl)cc1OCC1CC1 [Example 47, 3-Chloro-2-(3-cyclopropylmethoxy-4-methoxyphenyl)-1,5-dihydropyrrolo[2,3-d]pyridazin-4-one] | 256 to 258 °C
O=c1[nH]ncc2[nH]c(-c3ccc(OC(F)F)c(OC4CC4)c3)c(Cl)c12 [Example 2, 3-Chloro-2-(3-cyclopropoxy-4-difluoromethoxyphenyl)-1,5-dihydropyrrolo[2,3-d]pyridazin-4-one] | 281 to 283 °C
C#CCc1c(-c2ccc(OC(F)F)c(OC3CC3)c2)[nH]c2cn[nH]c(=O)c12 [Example 71, 2-(3-Cyclopropoxy-4-difluoromethoxyphenyl)-3-(2-propynyl)-1,5-dihydropyrrolo[2,3-d]pyridazin-4-one] | 245 to 246 °C
O=c1[nH]ncc2[nH]c(-c3ccc(OC(F)F)c(OC4CCC4)c3)c(Cl)c12 [Example 32, 3-Chloro-2-(3-cyclobutoxy-4-difluoromethoxyphenyl)-1,5-dihydropyrrolo[2,3-d]pyridazin-4-one] | 273 to 275 °C
N#Cc1cccc(Cc2c(-c3ccc(OC(F)F)c(OC4CC4)c3)[nH]c3cn[nH]c(=O)c23)c1 [Example 26, 3-(3-Cyanobenzyl)-2-(3-cyclopropoxy-4-difluoromethoxyphenyl)-1,5-dihydropyrrolo[2,3-d]pyridazin-4-one] | 130 to 135 °C
O=c1[nH]ncc2[nH]c(-c3ccc(OC(F)F)c(OC4CC4)c3)c(CO)c12 [Example 10, 2-(3-Cyclopropoxy-4-difluoromethoxyphenyl)-3-hydroxymethyl-1,5-dihydropyrrolo[2,3-d]pyridazin-4-one] | 190 to 191 °C

SMILES | melting point
COc1ccc(-c2[nH]c3cn[nH]c(=O)c3c2Br)cc1OC1CC1 [Example 43, 3-Bromo-2-(3-cyclopropoxy-4-methoxyphenyl)-1,5-dihydropyrrolo[2,3-d]pyridazin-4-one] | 293 to 296 °C (dec.)
C=CCc1c(-c2ccc(OC(F)F)c(OC3CC3)c2)[nH]c2cn[nH]c(=O)c12 [Example 74, 2-(3-Cyclopropoxy-4-difluoromethoxyphenyl)-3-(2-propenyl)-1,5-dihydropyrrolo[2,3-d]pyridazin-4-one] | 176 to 179 °C
CCc1c(-c2ccc(OC(F)F)c(OCC3CC3)c2)[nH]c2cn[nH]c(=O)c12 (as salt: HCl) [Example 37, 2-(3-Cyclopropylmethoxy-4-difluoromethoxyphenyl)-3-ethyl-1,5-dihydropyrrolo[2,3-d]pyridazin-4-one HCl adduct] | 224 to 227 °C
O=c1[nH]ncc2[nH]c(-c3ccc(OC(F)F)c(OC4CC4)c3)c(-c3cn[nH]c3)c12 [Example 18, 2-(3-Cyclopropoxy-4-difluoromethoxyphenyl)-3-(4-pyrazolyl)-1,5-dihydropyrrolo[2,3-d]pyridazin-4-one] | 294 to 297 °C
COc1cccc(Cc2c(-c3ccc(OC(F)F)c(OC4CC4)c3)[nH]c3cn[nH]c(=O)c23)n1 [Example 28, 2-(3-Cyclopropoxy-4-difluoromethoxyphenyl)-3-(6-methoxy-2-pyridylmethyl)-1,5-dihydropyrrolo[2,3-d]pyridazin-4-one] | 224 to 226 °C
O=c1[nH]ncc2[nH]c(-c3ccc(OC(F)F)c(OCC4CC4)c3)cc12 [Example 35, 2-(3-Cyclopropylmethoxy-4-difluoromethoxyphenyl)-1,5-dihydropyrrolo[2,3-d]pyridazin-4-one] | 294 to 295 °C
O=c1[nH]ncc2[nH]c(-c3ccc(OC(F)F)c(OC4CC4)c3)c(COCC3CC3)c12 [Example 59, 2-(3-Cyclopropoxy-4-difluoromethoxyphenyl)-3-cyclopropylmethoxymethyl-1,5-dihydropyrrolo[2,3-d]pyridazin-4-one] | 170 to 172 °C
O=C(O)c1cccc(Cc2c(-c3ccc(OC(F)F)c(OC4CC4)c3)[nH]c3cn[nH]c(=O)c23)c1 [Example 27, 3-(3-Carboxybenzyl)-2-(3-cyclopropoxy-4-difluoromethoxyphenyl)-1,5-dihydropyrrolo[2,3-d]pyridazin-4-one] | 155 to 163 °C
O=c1[nH]ncc2[nH]c(-c3ccc(OC(F)F)c(OC4CC4)c3)cc12 [Example 1, 2-(3-Cyclopropoxy-4-difluoromethoxyphenyl)-1,5-dihydropyrrolo[2,3-d]pyridazin-4-one] | 287 to 292 °C
O=c1[nH]ncc2[nH]c(-c3ccc(OC(F)F)c(OC4CC4)c3)c(-c3ccccc3)c12 [Example 17, 2-(3-Cyclopropoxy-4-difluoromethoxyphenyl)-3-phenyl-1,5-dihydropyrrolo[2,3-d]pyridazin-4-one] | 138 to 143 °C
COc1ccc(-c2[nH]c3cn[nH]c(=O)c3c2Cl)cc1OC1CC1 [Example 42, 3-Chloro-2-(3-cyclopropoxy-4-methoxyphenyl)-1,5-dihydropyrrolo[2,3-d]pyridazin-4-one] | 293 to 294 °C
CC(C)c1c(-c2ccc(OC(F)F)c(OC3CC3)c2)[nH]c2cn[nH]c(=O)c12 [Example 7, 2-(3-Cyclopropoxy-4-difluoromethoxyphenyl)-3-isopropyl-1,5-dihydropyrrolo[2,3-d]pyridazin-4-one] | 265 to 267 °C
CCC(C)OCc1c(-c2ccc(OC(F)F)c(OC3CC3)c2)[nH]c2cn[nH]c(=O)c12 (stereo not drawn) [Example 63, 3-(sec-Butoxymethyl)-2-(3-cyclopropoxy-4-difluoromethoxyphenyl)-1,5-dihydropyrrolo[2,3-d]pyridazin-4-one] | 103 to 106 °C
CCC(CC)OCc1c(-c2ccc(OC(F)F)c(OC3CC3)c2)[nH]c2cn[nH]c(=O)c12 [Example 65, 2-(3-Cyclopropoxy-4-difluoromethoxyphenyl)-3-(1-ethylpropoxymethyl)-1,5-dihydropyrrolo[2,3-d]pyridazin-4-one] | 133 to 162 °C
N#Cc1ccccc1Cc1c(-c2ccc(OC(F)F)c(OC3CC3)c2)[nH]c2cn[nH]c(=O)c12 [Example 25, 3-(2-Cyanobenzyl)-2-(3-cyclopropoxy-4-difluoromethoxyphenyl)-1,5-dihydropyrrolo[2,3-d]pyridazin-4-one] | > 300 °C
CCCc1c(-c2ccc(OC(F)F)c(OC3CC3)c2)[nH]c2cn[nH]c(=O)c12 [Example 6, 2-(3-Cyclopropoxy-4-difluoromethoxyphenyl)-3-propyl-1,5-dihydropyrrolo[2,3-d]pyridazin-4-one] | 208 to 210 °C
O=c1[nH]ncc2[nH]c(-c3ccc(OC(F)F)c(OC4CC4)c3)c(Cc3cccc(F)c3)c12 [Example 23, 2-(3-Cyclopropoxy-4-difluoromethoxyphenyl)-3-(3-fluorobenzyl)-1,5-dihydropyrrolo[2,3-d]pyridazin-4-one] | 208 to 210 °C
CCCCCc1c(-c2ccc(OC(F)F)c(OC3CC3)c2)[nH]c2cn[nH]c(=O)c12 [Example 68, 2-(3-Cyclopropoxy-4-difluoromethoxyphenyl)-3-pentyl-1,5-dihydropyrrolo[2,3-d]pyridazin-4-one] | 191 to 193 °C
